Key:
GSK3-β [1] = molecular target: T1, GSK3-β (Homo sapiens, UniProt P49841); assay: Ser-9 phosphorylation of GSK3-β in SH-SY5Y neuroblastoma cells (Western blot); format: cell-based; conditions: 1 mM sodium tungstate, 10 minutes, vs vehicle, FIG. 1A
T1 construct: endogenous in cells; host or cells: SH-SY5Y human neuroblastoma cells (ECACC 94030304)
Method: (§1) In FIG. 1 the effect of tungstate (W) on GSK3-β and tau phosphorylation on SH-SY5Y neuroblastoma cells is shown. The data correspond to the mean values and the error bars represent the standard deviation of three independent experiments. A) SH-SY5Y neuroblastoma cells were incubated for 10 minutes in the presence (+) or absence (−) of 1 mM sodium tungstate and their protein extracts were then probed by Western blot with an antibody that recognizes GSK3-β phosphorylated at Ser-9 and total GSK3-β. GSK3-β phosphorylation on Ser-9 causes its inactivation (D. A: Cross et al., Nature, vol. 378, pp. 785-789). […] B) SH-SY5Y cells were incubated with increasing concentrations of tungstate and the degree of tau phosphorylation was determined by Western blot with the tau-1 antibody, which recognizes tau when the serines 198, 199 or 202 are in unphosphorylated form. […] C) SH-SY5Y cells were incubated for 10 minutes in the presence (+) or absence (−) of 1 mM sodium tungstate (W) and the degree of tau phosphorylation was determined by Western blot with the AT180 antibody, which recognizes tau when threonine 231 is in phosphorylated form. […] The total amount of tau protein was determined using the 7.51 antibody.
(§2) The analysis of the degree of the phosphorylation of tau and GSK3 was performed by Western blot with the antibodies mentioned above. […]

tau [2] = assay: tau phosphorylation in SH-SY5Y neuroblastoma cells (Western blot, tau-1 and AT-180 antibodies); format: cell-based, Human
Method: as §1, §2

GSK3 [3] = molecular target: T2, GSK3 (Rattus norvegicus, UniProt P18266); assay: phosphorylation of GSK3 in brains of healthy Wistar rats intracranially injected with tungstate; format: in vivo; conditions: intracranial 0.1 mM tungstate vs saline, FIG. 2A
T2 construct: Western blot analysis of Ser-9 phosphorylation of GSK3 in rat brain extracts; from tissue; host or cells: rat brain (Wistar rats: healthy or STZ-diabetic)
T2 sequence (P18266 whole entry): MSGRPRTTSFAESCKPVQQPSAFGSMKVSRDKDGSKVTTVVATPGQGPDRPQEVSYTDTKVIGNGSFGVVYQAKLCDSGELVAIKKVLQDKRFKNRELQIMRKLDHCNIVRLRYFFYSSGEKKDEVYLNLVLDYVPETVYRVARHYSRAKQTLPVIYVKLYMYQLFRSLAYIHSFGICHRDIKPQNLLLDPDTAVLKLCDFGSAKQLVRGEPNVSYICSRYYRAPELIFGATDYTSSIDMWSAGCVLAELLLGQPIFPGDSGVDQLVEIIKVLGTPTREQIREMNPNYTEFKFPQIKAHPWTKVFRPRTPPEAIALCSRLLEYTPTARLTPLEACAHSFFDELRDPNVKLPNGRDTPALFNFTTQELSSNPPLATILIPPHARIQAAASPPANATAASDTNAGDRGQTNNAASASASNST
Method: (§3) In FIG. 2 the effect of tungstate (W) on the phosphorylation of tau in brains from healthy and insulin-resistant rats is shown. A) Western blot analysis of the phosphorylation of GSK3 (left) and tau (right) from brain extracts of healthy rats intracranially injected with saline (−) or 0.1 mM tungstate (+). Phosphorylation was measured with antibodies against Ser-9 phosphorylated GSK3-β (pS9), and tau phosphorylated at threonine 231 (AT180) or unphosphorylated at serines 198, 199 and 202 (tau-1). The total amount of GSK3 and tau was determined through the interaction with antibodies raised against GSK3 and against tau (7.51), respectively. […] Phosphorylation was measured using the antibody that reacts with Ser-9 phosphorylated GSK3-β (pS9-GSK3-β) or with the tau-1 and AT180 antibodies. The total amounts of GSK3 and tau were determined as in A. C) Insulin-resistant rats were injected intracranially with saline (−) or 0.1 mM tungstate (+), their brains were then isolated and homogenised, and Western blots of the brain proteins were performed with the tau-1, and AT180 antibodies. The total amount of tau protein was determined using the 7.51 antibody. […]
(§4) The analysis of the degree of the phosphorylation of tau and GSK3 was performed by Western blot with the antibodies mentioned above. […] The protein concentration was determined using the BCA protein assay (Pierce, Rockford, Ill.). […]

tau [4] = assay: phosphorylation of tau in brains of healthy Wistar rats intracranially injected with tungstate; format: in vivo, rat; conditions: intracranial 0.1 mM tungstate vs saline, FIG. 2A
Method: as §3, §4

tau [5] = assay: phosphorylation of tau in brains of insulin-resistant (high fat diet) rats injected intraventricularly with tungstate; format: in vivo, rat; conditions: 5 μl of 110 nM sodium tungstate intraventricularly (FIG. 2 legend: 0.1 mM), 24 hours, cortex, FIG. 2C, dihydrate
Method: In FIG. 2 the effect of tungstate (W) on the phosphorylation of tau in brains from healthy and insulin-resistant rats is shown. A) Western blot analysis of the phosphorylation of GSK3 (left) and tau (right) from brain extracts of healthy rats intracranially injected with saline (−) or 0.1 mM tungstate (+). Phosphorylation was measured with antibodies against Ser-9 phosphorylated GSK3-β (pS9), and tau phosphorylated at threonine 231 (AT180) or unphosphorylated at serines 198, 199 and 202 (tau-1). The total amount of GSK3 and tau was determined through the interaction with antibodies raised against GSK3 and against tau (7.51), respectively. B) Western blot analysis of the phosphorylation in brain of GSK3-β (left) and tau (right) in control (Ctrl) and insulin-resistant (IR) rats. Phosphorylation was measured using the antibody that reacts with Ser-9 phosphorylated GSK3-β (pS9-GSK3-β) or with the tau-1 and AT180 antibodies. The total amounts of GSK3 and tau were determined as in A. C) Insulin-resistant rats were injected intracranially with saline (−) or 0.1 mM tungstate (+), their brains were then isolated and homogenised, and Western blots of the brain proteins were performed with the tau-1, and AT180 antibodies. The total amount of tau protein was determined using the 7.51 antibody. A decrease in the interaction with AT180 and an increase for that of tau-1 were observed
The analysis of the degree of the phosphorylation of tau and GSK3 was performed by Western blot with the antibodies mentioned above. Cells were homogenized at 4° C. in 50 mM 4-(2-hydroxyethyl)piperazine-1-ethanesulfonic acid (HEPES), pH 7.4, 10 mM ethylenediaminetetraacetic acid (EDTA), 0.1% 4-(1,1,3,3-tetramethylbutyl)phenyl-polyethylene glycol (triton X-100), 20 mM NaF, 0.1 mM sodium orthovanadate, 1 mM phenylmethanesulphonylfluoride, 10 μg/ml Isovaleryl-Val-Val-4-amino-3-hydroxy-6-methylheptanoyl-Ala-4-amino-3-hydroxy-6-methylheptanoic Acid (Pepstatin A); and 10 μg/ml aprotinin. The cell lysates were centrifuged at 10,000 g for 30 min at 4° C. and then heated at 100° C. for 5 min in electrophoresis sample buffer. The protein concentration was determined using the BCA protein assay (Pierce, Rockford, Ill.). Proteins were fractionated by sodium dodecylsulfate-polyacrylamide gel electrophoresis (SDS-PAGE) on 10% gels and transferred to nitrocellulose membranes (Schleicher & Schuell Bioscience, Dassel, Germany). After blocking non-specific protein binding to the membranes with 0.05% polyethylene glycol sorbitan monolaurate (Tween 20) and 5% non-fat dry milk in phosphate buffered saline (PBS), the membranes were incubated overnight with the primary antibodies in blocking buffer at 4° C. […]

GSK3 [6] = molecular target: T2, GSK3; assay: Ser-9 phosphorylation of GSK3 in brain of healthy rats intraperitoneally injected with tungstate; format: in vivo; conditions: tungstate 50 mg/kg intraperitoneally vs saline, FIG. 3A
Method: (§5) In FIG. 3 the effect of tungstate (W) on the phosphorylation of tau from brains obtained from STZ-diabetic rats is shown. A) Western blot analysis of Ser-9 phosphorylation of GSK3 in rat brain extracts from control healthy rats intraperitoneally injected with saline (Ctrl) or tungstate (W) (50 mg/kg). […] B) as in A), STZ-diabetic rats intraperitoneally injected with 50 or 75 mg/kg of tungstate. C) Western blot analysis of the phosphorylation of tau at the site recognized by the tau-1 antibody in brain extracts from control healthy rats intraperitoneally injected with saline (Ctrl) or tungstate (W) (50 mg/kg). […] D) as in C), STZ-diabetic rats intraperitoneally injected with 50 or 75 mg/kg of tungstate. The data correspond to mean values and the error bars represent the standard deviation of three to five independent experiments.
as §4

tau [7] = assay: tau phosphorylation (tau-1 site) in brain of healthy rats intraperitoneally injected with tungstate; format: in vivo, rat; conditions: tungstate 50 mg/kg intraperitoneally vs saline, FIG. 3C
Method: as §5, §4

GSK3-β [8] = molecular target: T3, GSK3-β (Rattus norvegicus, UniProt P18266); assay: Ser-9 phosphorylation of GSK3-β in brain of STZ-diabetic rats intraperitoneally injected with tungstate; format: in vivo; conditions: tungstate 50 or 75 mg/kg intraperitoneally, FIG. 3B
T3 construct: Western blot analysis of Ser-9 phosphorylation of GSK3 in rat brain extracts; from tissue; host or cells: rat brain (Wistar rats: healthy or STZ-diabetic)
T3 sequence (P18266 whole entry): as above
Method: as §5, §4

tau [9] = assay: tau phosphorylation (tau-1 site) in brain of STZ-diabetic rats intraperitoneally injected with tungstate; format: in vivo, rat; conditions: tungstate 50 or 75 mg/kg intraperitoneally, FIG. 3D
Method: as §5, §4

[10] = cited from earlier work

T1 sequence (P49841 whole entry): as the sequence (P18266 whole entry) above, with M240V, P390T, A392T, T400A, A402T counted along it

SMILES: O.O.[Na+].[Na+].[O]=[W](=[O])([O-])[O-] [sodium tungstate, Sodium tungstate dihydrate]
- Ser-9 phosphorylation of GSK3-β (ratio GSK3-β-pS9 / total GSK3-β) (GSK3-β [1]): significantly increased
- phosphorylation of the tau epitope recognized by AT-180 (threonine 231; ratio AT180 / 7.51) (tau [2]; 1 mM sodium tungstate, 10 minutes, FIG. 1C): decrease
- immunoreactivity with the tau-1 antibody (tau unphosphorylated at serines 198, 199 or 202; ratio tau1 / 7.51) (tau [2]; increasing concentrations of tungstate, FIG. 1B): significant increase
- phosphorylation of GSK3 (Ser-9) in brain (GSK3 [3]): did not observe significant changes
- phosphorylation of tau (AT180, tau-1) in brain (tau [4]): did not observe significant changes
- amount of tau protein recognized by the tau-1 antibody in brain (tau [5]; listed as Tungstate): increased
- phosphorylation of tau at the epitope recognized by the AT180 antibody in brain (tau [5]; listed as Tungstate): decreased
- amount of tau protein recognized by the tau-1 antibody in brain (tau [5]; listed as tungstate): increase
- phosphorylation of tau at the epitope recognized by the AT180 antibody in brain (tau [5]; listed as tungstate): decrease
- phosphorylation of GSK3 at Ser-9 in brain (pS9-GSK3 / GSK3-β) (GSK3 [6]): no changes
- tau phosphorylation at the site recognized by the tau-1 antibody in brain (tau-1 / 7.51) (tau [7]): no changes
- Ser-9 phosphorylation of GSK3-β in brain (pS9-GSK3 / GSK3-β) (GSK3-β [8]): increased
- tau phosphorylation at the site recognized by the tau-1 antibody in brain (tau-1 / 7.51) (tau [9]): decreased
- solubility in water [10]: easily dissolved

Source: US20080206356A1, “Pharmaceutical Compositions for the Treatment of Neurodegenerative Disorders” (UNIVERSIDAD DE BARCELONA, priority 2005, published 2008)
